# Data from patent US6475991B2, “Use of α-alkylglucosides and α-alkylglucoside esters as anti-microbial an agents” (Ulice, priority 1996, dated 2002).
# Experiments:
# Format in all cases: cell-based
# [1] = system: Staphylococcus aureus, Pseudomonas aeruginosa, Escherichia coli; test: Preservative efficacy test (Pharmacopée Française), bactericidal effect
# Procedure: (§1) The inventors thus tested the bactericidal and/or fungicidal activity of α-alkylglucoside and α-alkylglucoside ester type compounds to determine the conditions, in particular the concentrations, under which said compounds have to be used for the desired activities to be obtained. The results of these tests were analysed in accordance with the “Pharmacopée Françcaise” which describes a methodology for monitoring the efficacy of antimicrobial preservation agents in pharmaceutical preparations and establishes minimum efficacy criteria as a function of the administration routes of a medicine. Thus specific criteria are fixed for topical patent medicines which can be considered to be close to cosmetic products in their conception. The recommended and significant criteria for bactericidal and/or fungicidal activity of a product are:
# for a bactericidal effect (Staphylococcus aureus, Pseudomonas aeruginosa, Escherichia coli):
# reduction of 3 logarithmic units in 14 days with respect to the initial population;
# no increase in microbial growth after 14 days and up to the 28th day, when the test is stopped;
# (§2) In order to facilitate visualisation of the bactericidal or fungicidal effect of the tested compounds, the results obtained were transcribed into the graphical forms of FIG. 5 which show the reduction in the number of germs in logarithmic units, over time (1 day, 7 days, 14 days, 21 days, 28 days).
# [2] = system: Candida albicans, Aspergillus niger; test: Preservative efficacy test (Pharmacopée Française), fungicidal effect (yeasts and moulds); conditions: concentrations of 1% to 3%
# Procedure: as §1
# (§3) for a fungicidal effect (yeasts and moulds) (Candida albicans, Aspergillus niger):
# (§4) reduction of one logarithmic unit in 14 days with respect to the initial population;
# (§5) no increase in microbial growth after 14 days and up to the 28th day, when the test is stopped.
# as §2
# Aspergillus niger = test: Preservative efficacy test (Pharmacopée Française), fungicidal effect on Aspergillus niger; conditions: concentration of 5%
# Procedure: as §1, §3, §4, §5, §2
structure (smiles),measurement,setting,value
"CCCCO[C@H]1O[C@H](CO)[C@@H](O)[C@H](O)[C@H]1O [α-BG, α-butylglucoside]",compliance with bactericidal standards of the Pharmacopée Française,[1]; concentrations above 1%,corresponds to the bactericidal standards
same,logarithmic reduction (bactericidal effect),"[1]; concentrations above 1% (1% to 5%), after 14 days",more than 3 logarithmic units
same,increase in the number of strains after 14 days,"[1]; concentrations above 1%, after 14 days",no subsequent increase in the number of strains
same,reduction in the number of germs,[1]; concentrations of less than 0.8%,small reduction in the number of germs
same,compliance with fungicidal standards,[2],satisfy the fungicidal standards
same,fungicidal activity on Aspergillus niger at 5% versus lower concentrations,Aspergillus niger,less active than at lower concentrations
